One assay deals with T1, PDGFRβ (Homo sapiens, UniProt P09619).
T1 construct: endogenous in cells; host or cells: MG63 osteosarcoma cells (ATCC)
The experiment in a line: In vitro phospho-Tyr751 PDGFRβ ELISA assay (Test (b)). The assay is classed as cell-based. The following applies: MG63 osteosarcoma cells stimulated with PDGFBB, read-out: IC50 versus phospho-Tyr751 formation in PDGFRβ. The procedure:
This assay uses a conventional ELISA method to determine the ability of test compounds to inhibit phosphorylation of tyrosine in PDGFRβ.
Aliquots (100 μl) of culture media were placed in the outer wells to minimise edge effects. The cells were incubated overnight at 37° C. with 7.5% CO2 to allow the cells to adhere to the wells.
Aliquots (3 μl) of each compound concentration were added to test medium (300 μl) to create a second dilution range. Aliquots (16 μl) of each resultant compound concentration were added to the cells in each well. “Maximum” control cells received a dilution of DMSO plus test medium only. “Minimum” control cells received a reference PDGFR inhibitor (16 μl). The cells were incubated for 90 minutes at 37° C. with 7.5% CO2.
The resultant cells were stimulated with PDGFBB using the following procedure. A lyophilised powder of PDGFBB, (Sigma-Aldrich; Catalogue No. P4306) was mixed with sterile water to provide a stock solution of 10 μg/ml of PDGFBB. […] Aliquots thereof (44 μl) were added to compound treated cells and to the “Maximum” control cells. The “Minimum” control cells received medium only. The cells were incubated at 37° C. with 7.5% CO2 for 5 minutes. […] The resultant tissue culture plates were shaken for 5 minutes at ambient temperature to ensure full lysis and then frozen at −20° C. until required.
Aliquots (50 μl) were added to each well and the plates were placed at 4° C. for 16 hours. The wells were washed 5 times (1 minute soak each time) with 300 μl per well of PBST. The wells were treated with 50 μl of 3% BSA in PBST at ambient temperature for 1 hour and subsequently washed twice with 300 μl per well of PBST.
The tissue culture plates with frozen cell lysate were allowed to warm to 0° C.
On the technique in general: An ELISA detects its analyte on a solid surface through an enzyme-linked reagent.

A further assay deals with T2, KDR (VEGFR2) (Homo sapiens, UniProt P35968).
T2 construct: phosphorylation of KDR expressed in human umbilical vein endothelial cells (HUVECs); host or cells: HUVEC
T2 sequence (P35968 20-1356): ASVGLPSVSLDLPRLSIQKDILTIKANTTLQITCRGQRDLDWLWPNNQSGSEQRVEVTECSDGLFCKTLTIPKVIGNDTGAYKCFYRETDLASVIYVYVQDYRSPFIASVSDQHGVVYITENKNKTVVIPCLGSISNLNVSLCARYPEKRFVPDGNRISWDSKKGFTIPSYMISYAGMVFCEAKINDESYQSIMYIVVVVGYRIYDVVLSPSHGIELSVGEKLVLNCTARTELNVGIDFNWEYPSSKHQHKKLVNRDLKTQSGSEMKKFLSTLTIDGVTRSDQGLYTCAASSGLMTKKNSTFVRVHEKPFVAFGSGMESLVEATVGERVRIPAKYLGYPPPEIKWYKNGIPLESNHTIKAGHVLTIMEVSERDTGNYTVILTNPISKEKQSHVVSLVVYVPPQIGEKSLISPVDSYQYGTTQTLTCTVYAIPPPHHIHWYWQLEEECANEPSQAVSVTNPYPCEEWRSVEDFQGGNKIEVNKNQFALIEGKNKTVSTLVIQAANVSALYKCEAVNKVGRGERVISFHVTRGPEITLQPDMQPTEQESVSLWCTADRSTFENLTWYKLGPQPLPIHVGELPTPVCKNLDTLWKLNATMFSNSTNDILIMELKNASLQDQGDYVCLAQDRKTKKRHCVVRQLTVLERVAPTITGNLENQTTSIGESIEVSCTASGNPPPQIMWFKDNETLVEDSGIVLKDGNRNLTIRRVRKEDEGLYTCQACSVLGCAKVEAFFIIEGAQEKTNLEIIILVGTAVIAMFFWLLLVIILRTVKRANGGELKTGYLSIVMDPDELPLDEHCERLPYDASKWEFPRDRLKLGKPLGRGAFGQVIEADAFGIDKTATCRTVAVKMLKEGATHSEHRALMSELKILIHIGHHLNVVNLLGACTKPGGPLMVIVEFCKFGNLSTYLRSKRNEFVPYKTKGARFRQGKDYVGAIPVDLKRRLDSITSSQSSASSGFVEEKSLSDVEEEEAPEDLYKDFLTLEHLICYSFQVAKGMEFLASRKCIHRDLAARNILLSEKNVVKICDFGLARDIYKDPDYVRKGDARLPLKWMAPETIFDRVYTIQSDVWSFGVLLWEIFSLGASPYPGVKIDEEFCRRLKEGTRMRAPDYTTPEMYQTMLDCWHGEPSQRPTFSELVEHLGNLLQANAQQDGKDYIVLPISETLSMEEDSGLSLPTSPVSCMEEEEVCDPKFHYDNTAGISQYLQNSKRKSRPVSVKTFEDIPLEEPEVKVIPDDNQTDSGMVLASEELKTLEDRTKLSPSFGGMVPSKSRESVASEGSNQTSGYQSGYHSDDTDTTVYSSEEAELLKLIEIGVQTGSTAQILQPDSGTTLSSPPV
Briefly: In vitro phospho-KDR ELISA assay (Test (c)). The format is cell-based. The following applies: HUVECs stimulated with VEGF, read-out: IC50 versus phospho-tyrosine formation in KDR. On the procedure: (c) In Vitro Phospho-KDR ELISA Assay
This assay uses a conventional ELISA method to determine the ability of test compounds to inhibit phosphorylation of tyrosine in KDR (VEGFR2).
The cells were incubated overnight at 37° C. with 7.5% CO2 to allow adherence to the well surface. […] The plates were incubated at 37° C. for 2.5 hours.
Test compounds were prepared as 10 mM stock solutions in DMSO and serially diluted with DMSO as required. […] Aliquots (50 μl) of each resultant compound concentration were added to the cells in each well. […] The cells were incubated for 90 minutes at 37° C. with 7.5% CO2.
The resultant cells were stimulated with VEGF using the following procedure. […] A dilution of this stock solution into ‘serum free medium’ provided a 1000 ng/ml VEGF solution. Aliquots thereof (50 μl) were added to all wells. The cells were incubated at 37° C. with 7.5% CO2 for 5 minutes. […] The resultant tissue culture plates were shaken for 5 minutes at ambient temperature to ensure full lysis before being frozen on dry-ice and stored at −20° C. until required.
The antibody was diluted in PBS to a concentration of 8 μg/ml, aliquots (100 μl) were added to each well and the plates were stored at ambient temperature for 16 hours. The wells were washed 3 times (1 minute soak each time) with 300 μl per well of PBST. The wells were treated with PBS containing 1% filter-sterilised BSA (1% BSA/PBS; 200 μl) at ambient temperature for 1 hour and subsequently washed 3 times with 300 μl per well of PBST.
The tissue culture plates with frozen cell lysate were allowed to warm to 0° C. Aliquots (100 μl) of the HUVEC cell lysate were added and the ELISA plates were agitated at ambient temperature for 3 hours. The wells were washed 3 times with 300 μl per well of PBST.

This note sets out measurements from patent US20090076075A1, “QUINOLINE DERIVATIVES” (priority 2006, published 2009).

Some results are limits rather than exact numbers.

T1 sequence (P09619 33-1106): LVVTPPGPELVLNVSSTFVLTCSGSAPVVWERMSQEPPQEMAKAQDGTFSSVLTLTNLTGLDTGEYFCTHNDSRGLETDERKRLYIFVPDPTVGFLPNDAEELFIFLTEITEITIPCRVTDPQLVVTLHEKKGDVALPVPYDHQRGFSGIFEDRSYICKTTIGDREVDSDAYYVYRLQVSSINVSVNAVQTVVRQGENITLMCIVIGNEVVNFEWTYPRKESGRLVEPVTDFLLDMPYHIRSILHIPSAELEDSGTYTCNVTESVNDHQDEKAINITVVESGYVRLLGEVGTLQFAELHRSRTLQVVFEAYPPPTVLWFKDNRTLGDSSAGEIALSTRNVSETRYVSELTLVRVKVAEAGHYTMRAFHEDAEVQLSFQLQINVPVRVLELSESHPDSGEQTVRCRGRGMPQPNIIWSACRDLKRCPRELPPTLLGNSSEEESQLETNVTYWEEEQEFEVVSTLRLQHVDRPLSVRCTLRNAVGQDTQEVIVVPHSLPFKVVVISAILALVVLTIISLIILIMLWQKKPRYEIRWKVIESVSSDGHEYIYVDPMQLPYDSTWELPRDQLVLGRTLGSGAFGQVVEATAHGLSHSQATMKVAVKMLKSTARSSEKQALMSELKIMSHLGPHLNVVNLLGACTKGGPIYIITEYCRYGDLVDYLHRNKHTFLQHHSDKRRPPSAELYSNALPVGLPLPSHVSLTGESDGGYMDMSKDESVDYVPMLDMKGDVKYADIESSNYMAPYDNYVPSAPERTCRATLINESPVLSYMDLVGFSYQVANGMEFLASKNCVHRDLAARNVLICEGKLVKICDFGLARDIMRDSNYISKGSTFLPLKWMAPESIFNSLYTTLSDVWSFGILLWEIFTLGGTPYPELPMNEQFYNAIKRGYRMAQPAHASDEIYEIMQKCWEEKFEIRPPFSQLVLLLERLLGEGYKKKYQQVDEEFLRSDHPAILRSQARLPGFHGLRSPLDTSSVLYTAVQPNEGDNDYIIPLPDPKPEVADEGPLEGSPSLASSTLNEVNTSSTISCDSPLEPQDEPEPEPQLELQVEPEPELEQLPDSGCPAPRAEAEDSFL

Turning to `CCc1cc(NC(=O)Cc2ncc(Oc3ccnc4ccc(F)cc34)cc2OC)no1` [N-(5-ethylisoxazol-3-yl)-2-[5-(6-fluoroquinolin-4-yloxy)-3-methoxypyridin-2-yl]acetamide], the IC50 (as a rule, the concentration that gives 50% inhibition) on PDGFRβ was ~5 nM; on KDR (VEGFR2), > 2000 nM.
Take `CCc1cc(NC(=O)Cc2ccc(Oc3ccnc4cc(OC)c(C#N)cc34)cn2)n[nH]1` [Example 3, N-(5-ethylpyrazol-3-yl)-2-[5-(6-cyano-7-methoxyquinolin-4-yloxy)pyridin-2-yl]acetamide]: at PDGFRβ, the IC50 is ~30 nM.
Regarding `COc1cc2nccc(Oc3cnc(CC(=O)Nc4n[nH]c(C)c4C)c(OC)c3)c2cc1OC` [N-(4,5-dimethylpyrazol-3-yl)-2-[5-(6,7-dimethoxyquinolin-4-yloxy)-3-methoxypyridin-2-yl]acetamide], the IC50 at PDGFRβ is ~5 nM; at KDR (VEGFR2), > 2000 nM.
`COc1ccc2c(Oc3cnc(CC(=O)Nc4noc(C)c4C)c(OC)c3)ccnc2c1` [N-(4,5-dimethylisoxazol-3-yl)-2-[3-methoxy-5-(7-methoxyquinolin-4-yloxy)pyridin-2-yl]acetamide]: the IC50 at PDGFRβ is ~5 nM; at KDR (VEGFR2), > 2000 nM.
